Earlier results as cited in patent US12167995B2, “[((1R,2S,5R)-2-isopropyl-5-methyl-cyclohexanecarbonyl)-amino]-acetic acid isopropyl ester for treatment of chronic cough” (AXALBION SA, priority 2019, dated 2024).
“Also recorded” adds a separate entry of the source. Where two headings read alike, the source gives them in different places.

What was measured:
[1] = test system: isolated guinea pig vagal nerves; settings: Maher et al., 2014; cited from earlier work
[2] = test system: refractory chronic cough (RCC); settings: cited from earlier work
[3] = test system: acute cough induced by capsaicin; settings: MK-7264: in RCC patients or in healthy subjects; cited from earlier work

Structure (SMILES) | TRPM8 dependence of inhibition of capsaicin-induced response [1] | effect on cough frequency in RCC patients ([2]; human, in vivo) | effect on acute cough induced by capsaicin [3] | patients with adverse events related to taste (dysgeusia, hypogeusia, or ageusia) ([2]; 50 mg per day) [%] | patients with adverse events related to taste (dysgeusia, hypogeusia, or ageusia) ([2]; 1200 mg per day) [%] | effect on VAS scores in RCC patients ([2]; human, in vivo)
CC(C)[C@@H]1CC[C@@H](C)C[C@H]1O [menthol, (1R,2S,5R)-2-isopropyl-5-methyl-cyclohexanol] | in a TRPM8-independent way |  |  |  |  | 
O=C(Nc1ccccc1Br)N[C@@H]1CCN(c2ccc(C(F)(F)F)cn2)C1 [SB-705498] |  | do not reduce cough frequency in RCC patients | inhibit acute cough induced by capsaicin |  |  | 
COc1cc(C(C)C)c(Oc2cnc(N)nc2N)cc1S(N)(=O)=O [MK-7264] |  | efficient in reducing cough frequency; also recorded: efficient in decreasing cough frequency in RCC patients | not effective for acute cough induced by the tussive stimulus capsaicin | 81 | 100 | poorly effective in improving the VAS scores
